Data from patent publication US12492195B2, “Preparation method for and crystal form of 3-aryloxy-3-five-membered heteroaryl-propylamine compound” (Zhangzhou Pien Tze Huang Pharmaceutical Co., Ltd., priority 2020, dated 2025).

Legend:
TRPM8 = molecular target: T1, TRPM8 (Homo sapiens, UniProt Q7Z2W7); assay: Manual patch clamp detection on TRPM8 channel; assay type: cell-based
T1 construct: expressed in transfected cells
Protocol: TRPM8 cells were cultured in a cell culture dish with a diameter of 35 mm, placed in an incubator in 5% CO2 at 37° C., and passaged at a ratio of 1:5 every 48 hours. The formula of medium was 90% DMEM (Invitrogen), 10% fetal bovine serum (Gibco), 2 mM L-glutamine, 50 μg/mL Hygromycin B (Invitrogen) and 5 μg/mL Blasticidine HCl (Invitrogen). Before electrophysiological patch clamp experiment, the cell culture medium was replaced with medium containing 1 μg/mL doxycycline for at least 16 hours to induce TRPM8 expression.
On the day of the experiment, the cell culture medium was aspirated, the cell were rinsed once with extracellular fluid, and then 0.25% Trypsin-EDTA (Invitrogen) solution was added, and digested at room temperature for 1-2 minutes. The digestion solution was aspirated, the cell were resuspended with extracellular fluid, and transferred to the experimental dish for electrophysiological recording for further experiment.
Preparation of menthol: 100.00 mM of DMSO stock solution of menthol was added to the extracellular solution, diluting 1000-fold to 100.00 μM of menthol solution.
Preparation of AMTB: 5 μL of DMSO stock solution (20.00 mM) of AMTB was added to 4995 μL of menthol solution (100.00 uM), diluting 1000-fold to obtain the final concentration of 20.00 μM AMTB to be tested.
Preparation of IC-1: 20.00 mM or 10.00 mM of stock solution of IC-1 was taken and added to the agonist solution of the corresponding channel, diluting 1000 or 2000-fold to the final concentration of 10.00 μM of […] solution to be tested.
HEK293 cells stably expressing TRP channels, the corresponding agonist-induced channel current was recorded by whole-cell patch clamp technique at room temperature. […] Clamp voltages and data recording were controlled and recorded by a computer using pClamp 11 software with the sampling frequency of 10 kHz and the filtering frequency of 2 kHz. […] After the current was evoked for more than 40 s and no attenuation was determined, the dosing process started. […]

SD rats = assay: SNL model in rats, mechanical hyperalgesia test; assay type: in vivo; conditions: 10 mg/kg by gavage, 1 hour after administration
Protocol: Male SPF grade SD rats, weighed 150-180 g, were selected. Aseptic operation during surgery was performed. The animals were anesthetized with sodium pentobarbital (50 mg/kg, intraperitoneal injection). The surgical area of animal waist was shaved and the skin was disinfected three times with iodophor and 70% ethanol. After the skin was dried, the operation was started. Surgical knife was used to make a longitudinal incision at the back of the sacrum of the animal waist to expose the left paraspinal muscles, and distractor was used to separate muscle tissue to expose the spine. The left spinal nerves L5 and L6 were separated and ligated with a 6-0 silk thread, and the wound was sutured. […]
The animals were weighed to calculate the dosage. […] During the test, rapid paw withdrawal of animal was recorded as pain response. When the test fiber was removed from animal skin, the paw withdrawal of animal was also recorded as pain response. If animal moved or walked, the pain response was not recorded and the test was repeated. […]
Mechanical hyperalgesia was expressed as paw withdrawal threshold (PWT) in rat behavioral test, which was calculated with the following formula: 50% response threshold (g)=(10^(Xf+k))/10,000; • Xf=the final test fiber value used in the test; • k=table value; • =mean difference

T1 sequence (Q7Z2W7 whole entry, species assumed): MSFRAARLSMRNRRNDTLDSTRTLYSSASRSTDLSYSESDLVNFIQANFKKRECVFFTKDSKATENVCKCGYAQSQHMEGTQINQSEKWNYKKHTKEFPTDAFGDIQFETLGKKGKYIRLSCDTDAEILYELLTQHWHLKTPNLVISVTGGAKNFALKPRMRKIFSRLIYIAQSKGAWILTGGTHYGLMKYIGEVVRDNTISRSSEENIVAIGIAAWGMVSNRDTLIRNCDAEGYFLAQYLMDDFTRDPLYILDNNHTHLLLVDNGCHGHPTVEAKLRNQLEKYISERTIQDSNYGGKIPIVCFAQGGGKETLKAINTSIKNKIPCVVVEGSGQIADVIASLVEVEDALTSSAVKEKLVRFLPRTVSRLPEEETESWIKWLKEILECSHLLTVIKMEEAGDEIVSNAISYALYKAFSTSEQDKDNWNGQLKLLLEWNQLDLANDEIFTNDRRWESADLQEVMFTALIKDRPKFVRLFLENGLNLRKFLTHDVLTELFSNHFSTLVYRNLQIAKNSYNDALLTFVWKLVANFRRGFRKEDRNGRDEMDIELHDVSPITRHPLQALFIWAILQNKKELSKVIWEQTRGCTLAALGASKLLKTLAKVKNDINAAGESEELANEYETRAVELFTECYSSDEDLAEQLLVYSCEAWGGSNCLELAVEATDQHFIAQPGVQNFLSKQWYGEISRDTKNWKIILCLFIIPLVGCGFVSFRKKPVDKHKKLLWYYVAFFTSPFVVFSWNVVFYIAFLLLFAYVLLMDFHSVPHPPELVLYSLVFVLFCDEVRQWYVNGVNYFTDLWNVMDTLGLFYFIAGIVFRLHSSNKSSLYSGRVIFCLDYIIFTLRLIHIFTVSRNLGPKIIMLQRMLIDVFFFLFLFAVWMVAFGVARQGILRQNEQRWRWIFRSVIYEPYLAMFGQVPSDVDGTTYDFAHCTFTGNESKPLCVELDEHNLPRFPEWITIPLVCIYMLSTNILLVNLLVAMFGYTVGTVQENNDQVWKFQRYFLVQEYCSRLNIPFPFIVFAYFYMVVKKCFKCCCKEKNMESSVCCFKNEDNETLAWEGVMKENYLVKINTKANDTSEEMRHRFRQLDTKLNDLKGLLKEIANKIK

With CNCC[C@H](Oc1cccc2ccoc12)c1cccs1 [IC-1, (S)-3-(Benzofuran-7-yloxy)-N-methyl-3-(thiophen-2-yl)propan-1-amine] the inhibition at 10 µM (TRPM8; 10.00 μM, HEK293, menthol-induced current) was 41.1%, the IC50 (TRPM8; read-out: IC50 of the compound to TRPM8) was greater than 10 µM and the “PWT” value (SD rats) was 7.869 ± 2.846 g.
